Experimental data as given in PMC6704710, “Preclinical evaluation of 3D185, a novel potent inhibitor of FGFR1/2/3 and CSF-1R, in FGFR-dependent and macrophage-dominant cancer models” (Journal of Experimental & Clinical Cancer Research : CR, 2019).

Columns and labels:
Test in all cases: Eurofins kinase panel
Assay type in all cases: biochemical
Conditions in all cases: read-out: Inhibition rate (%)
[1] = biological target: T1, CHK2(h) (Homo sapiens, UniProt O96017)
T1 construct: purchased Eurofins (KinaseProfiler)

[2] = biological target: T2, EGFR(L858R)(h) (Homo sapiens, UniProt P00533, L858R)
T2 construct: purchased Eurofins (KinaseProfiler)

[3] = biological target: T3, CaMKIγ(h) (Homo sapiens, UniProt Q96NX5)
T3 construct: purchased Eurofins (KinaseProfiler)

[4] = biological target: T4, ULK2(h) (Homo sapiens, UniProt Q8IYT8)
T4 construct: purchased Eurofins (KinaseProfiler)
T4 sequence (Q8IYT8 1-1036): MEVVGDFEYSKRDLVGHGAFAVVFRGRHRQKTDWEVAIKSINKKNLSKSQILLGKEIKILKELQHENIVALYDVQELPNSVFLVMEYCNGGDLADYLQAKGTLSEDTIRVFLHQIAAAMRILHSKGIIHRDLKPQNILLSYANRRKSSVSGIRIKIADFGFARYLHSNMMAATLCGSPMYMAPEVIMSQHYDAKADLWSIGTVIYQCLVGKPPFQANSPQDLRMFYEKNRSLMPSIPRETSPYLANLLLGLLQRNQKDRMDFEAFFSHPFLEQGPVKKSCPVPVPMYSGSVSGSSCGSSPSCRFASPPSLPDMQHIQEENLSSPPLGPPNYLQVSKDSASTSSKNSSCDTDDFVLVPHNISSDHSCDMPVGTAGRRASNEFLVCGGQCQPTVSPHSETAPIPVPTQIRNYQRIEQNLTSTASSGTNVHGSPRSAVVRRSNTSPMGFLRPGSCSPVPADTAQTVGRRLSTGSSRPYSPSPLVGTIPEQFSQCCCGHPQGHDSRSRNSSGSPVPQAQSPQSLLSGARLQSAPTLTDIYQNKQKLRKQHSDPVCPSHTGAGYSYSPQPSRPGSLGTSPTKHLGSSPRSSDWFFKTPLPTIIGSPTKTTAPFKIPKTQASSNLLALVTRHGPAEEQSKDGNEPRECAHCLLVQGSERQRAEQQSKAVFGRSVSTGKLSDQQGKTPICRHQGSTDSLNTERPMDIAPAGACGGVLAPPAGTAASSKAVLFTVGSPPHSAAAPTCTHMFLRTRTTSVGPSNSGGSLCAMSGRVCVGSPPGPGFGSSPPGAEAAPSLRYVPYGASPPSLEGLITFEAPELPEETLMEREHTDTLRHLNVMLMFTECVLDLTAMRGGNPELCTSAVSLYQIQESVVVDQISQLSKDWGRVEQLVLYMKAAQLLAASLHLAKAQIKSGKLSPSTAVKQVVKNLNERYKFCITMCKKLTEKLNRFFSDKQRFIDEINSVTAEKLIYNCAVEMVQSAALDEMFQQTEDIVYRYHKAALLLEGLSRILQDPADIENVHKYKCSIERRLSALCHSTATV

[5] = biological target: T5, PAK5(h) (Homo sapiens, UniProt Q9P286)
T5 construct: purchased Eurofins (KinaseProfiler)

[6] = biological target: T6, SRPK2(h) (Homo sapiens, UniProt P78362)
T6 construct: purchased Eurofins (KinaseProfiler)

[7] = biological target: T7, B-Raf(h) (Homo sapiens, UniProt P15056)
T7 construct: purchased Eurofins (KinaseProfiler)

[8] = biological target: T8, Rsk1(r) (Rattus norvegicus, UniProt Q63531)
T8 construct: purchased Eurofins (KinaseProfiler)

[9] = biological target: T9, WNK1(h) (Homo sapiens, UniProt Q9H4A3)
T9 construct: purchased Eurofins (KinaseProfiler)

[10] = biological target: T10, Blk(h) (Homo sapiens, UniProt P51451)
T10 construct: purchased Eurofins (KinaseProfiler)

[11] = biological target: T11, CK2α2(h) (Homo sapiens, UniProt P19784)
T11 construct: purchased Eurofins (KinaseProfiler)

[12] = biological target: T12, PAK2(h) (Homo sapiens, UniProt Q13177)
T12 construct: purchased Eurofins (KinaseProfiler)

[13] = biological target: T13, CSK(h) (Homo sapiens, UniProt P41240)
T13 construct: purchased Eurofins (KinaseProfiler)

[14] = biological target: T14, TrkB(h) (Homo sapiens, UniProt Q16620)
T14 construct: purchased Eurofins (KinaseProfiler)

[15] = biological target: T15, VRK2(h) (Homo sapiens, UniProt Q86Y07)
T15 construct: purchased Eurofins (KinaseProfiler)
T15 sequence (Q86Y07 whole entry): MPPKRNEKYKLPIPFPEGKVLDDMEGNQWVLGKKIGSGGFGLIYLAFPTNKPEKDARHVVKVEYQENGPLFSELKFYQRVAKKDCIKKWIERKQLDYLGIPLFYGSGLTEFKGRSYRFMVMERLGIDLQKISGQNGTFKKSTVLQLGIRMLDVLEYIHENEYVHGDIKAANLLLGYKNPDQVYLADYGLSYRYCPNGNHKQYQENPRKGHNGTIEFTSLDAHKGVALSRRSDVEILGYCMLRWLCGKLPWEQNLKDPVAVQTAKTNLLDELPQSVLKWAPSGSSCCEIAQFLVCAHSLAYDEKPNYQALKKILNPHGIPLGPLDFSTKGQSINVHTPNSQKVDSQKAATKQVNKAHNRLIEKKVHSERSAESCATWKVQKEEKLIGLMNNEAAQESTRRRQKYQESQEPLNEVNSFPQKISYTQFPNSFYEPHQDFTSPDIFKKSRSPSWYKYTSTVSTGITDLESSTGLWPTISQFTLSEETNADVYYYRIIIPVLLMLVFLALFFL

T8 sequence (Q63531 whole entry): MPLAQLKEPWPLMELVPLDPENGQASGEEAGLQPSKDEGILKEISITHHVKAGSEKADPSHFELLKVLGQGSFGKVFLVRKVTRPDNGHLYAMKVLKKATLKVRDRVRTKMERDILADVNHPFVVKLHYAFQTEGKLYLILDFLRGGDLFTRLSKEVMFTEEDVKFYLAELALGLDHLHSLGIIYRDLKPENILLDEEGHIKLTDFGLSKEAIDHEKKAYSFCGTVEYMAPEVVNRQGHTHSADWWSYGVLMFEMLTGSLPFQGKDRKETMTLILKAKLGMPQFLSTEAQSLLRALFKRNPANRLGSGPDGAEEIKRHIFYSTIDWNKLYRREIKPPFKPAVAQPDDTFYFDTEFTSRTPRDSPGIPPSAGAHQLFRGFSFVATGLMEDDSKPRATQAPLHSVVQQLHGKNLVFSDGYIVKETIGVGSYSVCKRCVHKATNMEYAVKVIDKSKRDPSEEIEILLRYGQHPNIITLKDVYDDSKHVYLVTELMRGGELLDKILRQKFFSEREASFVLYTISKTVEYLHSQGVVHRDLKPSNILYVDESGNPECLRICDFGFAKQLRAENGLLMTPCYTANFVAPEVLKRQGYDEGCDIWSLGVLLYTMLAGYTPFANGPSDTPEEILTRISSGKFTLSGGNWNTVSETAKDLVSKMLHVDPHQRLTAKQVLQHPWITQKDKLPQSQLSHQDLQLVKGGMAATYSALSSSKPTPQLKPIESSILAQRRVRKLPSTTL
T1 sequence (O96017 whole entry): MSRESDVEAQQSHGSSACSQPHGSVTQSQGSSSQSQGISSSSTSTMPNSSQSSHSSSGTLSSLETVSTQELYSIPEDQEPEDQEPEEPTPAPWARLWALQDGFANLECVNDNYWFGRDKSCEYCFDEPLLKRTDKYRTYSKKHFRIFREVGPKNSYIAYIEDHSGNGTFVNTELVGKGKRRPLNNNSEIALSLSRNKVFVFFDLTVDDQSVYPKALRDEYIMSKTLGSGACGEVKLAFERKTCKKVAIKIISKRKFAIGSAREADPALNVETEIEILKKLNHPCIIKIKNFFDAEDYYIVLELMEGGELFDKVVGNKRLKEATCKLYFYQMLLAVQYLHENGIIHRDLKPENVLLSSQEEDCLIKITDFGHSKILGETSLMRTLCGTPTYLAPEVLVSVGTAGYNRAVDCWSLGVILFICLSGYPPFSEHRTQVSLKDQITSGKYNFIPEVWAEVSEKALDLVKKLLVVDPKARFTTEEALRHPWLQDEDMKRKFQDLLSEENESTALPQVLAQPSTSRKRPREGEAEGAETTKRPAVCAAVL
T9 sequence (Q9H4A3 whole entry): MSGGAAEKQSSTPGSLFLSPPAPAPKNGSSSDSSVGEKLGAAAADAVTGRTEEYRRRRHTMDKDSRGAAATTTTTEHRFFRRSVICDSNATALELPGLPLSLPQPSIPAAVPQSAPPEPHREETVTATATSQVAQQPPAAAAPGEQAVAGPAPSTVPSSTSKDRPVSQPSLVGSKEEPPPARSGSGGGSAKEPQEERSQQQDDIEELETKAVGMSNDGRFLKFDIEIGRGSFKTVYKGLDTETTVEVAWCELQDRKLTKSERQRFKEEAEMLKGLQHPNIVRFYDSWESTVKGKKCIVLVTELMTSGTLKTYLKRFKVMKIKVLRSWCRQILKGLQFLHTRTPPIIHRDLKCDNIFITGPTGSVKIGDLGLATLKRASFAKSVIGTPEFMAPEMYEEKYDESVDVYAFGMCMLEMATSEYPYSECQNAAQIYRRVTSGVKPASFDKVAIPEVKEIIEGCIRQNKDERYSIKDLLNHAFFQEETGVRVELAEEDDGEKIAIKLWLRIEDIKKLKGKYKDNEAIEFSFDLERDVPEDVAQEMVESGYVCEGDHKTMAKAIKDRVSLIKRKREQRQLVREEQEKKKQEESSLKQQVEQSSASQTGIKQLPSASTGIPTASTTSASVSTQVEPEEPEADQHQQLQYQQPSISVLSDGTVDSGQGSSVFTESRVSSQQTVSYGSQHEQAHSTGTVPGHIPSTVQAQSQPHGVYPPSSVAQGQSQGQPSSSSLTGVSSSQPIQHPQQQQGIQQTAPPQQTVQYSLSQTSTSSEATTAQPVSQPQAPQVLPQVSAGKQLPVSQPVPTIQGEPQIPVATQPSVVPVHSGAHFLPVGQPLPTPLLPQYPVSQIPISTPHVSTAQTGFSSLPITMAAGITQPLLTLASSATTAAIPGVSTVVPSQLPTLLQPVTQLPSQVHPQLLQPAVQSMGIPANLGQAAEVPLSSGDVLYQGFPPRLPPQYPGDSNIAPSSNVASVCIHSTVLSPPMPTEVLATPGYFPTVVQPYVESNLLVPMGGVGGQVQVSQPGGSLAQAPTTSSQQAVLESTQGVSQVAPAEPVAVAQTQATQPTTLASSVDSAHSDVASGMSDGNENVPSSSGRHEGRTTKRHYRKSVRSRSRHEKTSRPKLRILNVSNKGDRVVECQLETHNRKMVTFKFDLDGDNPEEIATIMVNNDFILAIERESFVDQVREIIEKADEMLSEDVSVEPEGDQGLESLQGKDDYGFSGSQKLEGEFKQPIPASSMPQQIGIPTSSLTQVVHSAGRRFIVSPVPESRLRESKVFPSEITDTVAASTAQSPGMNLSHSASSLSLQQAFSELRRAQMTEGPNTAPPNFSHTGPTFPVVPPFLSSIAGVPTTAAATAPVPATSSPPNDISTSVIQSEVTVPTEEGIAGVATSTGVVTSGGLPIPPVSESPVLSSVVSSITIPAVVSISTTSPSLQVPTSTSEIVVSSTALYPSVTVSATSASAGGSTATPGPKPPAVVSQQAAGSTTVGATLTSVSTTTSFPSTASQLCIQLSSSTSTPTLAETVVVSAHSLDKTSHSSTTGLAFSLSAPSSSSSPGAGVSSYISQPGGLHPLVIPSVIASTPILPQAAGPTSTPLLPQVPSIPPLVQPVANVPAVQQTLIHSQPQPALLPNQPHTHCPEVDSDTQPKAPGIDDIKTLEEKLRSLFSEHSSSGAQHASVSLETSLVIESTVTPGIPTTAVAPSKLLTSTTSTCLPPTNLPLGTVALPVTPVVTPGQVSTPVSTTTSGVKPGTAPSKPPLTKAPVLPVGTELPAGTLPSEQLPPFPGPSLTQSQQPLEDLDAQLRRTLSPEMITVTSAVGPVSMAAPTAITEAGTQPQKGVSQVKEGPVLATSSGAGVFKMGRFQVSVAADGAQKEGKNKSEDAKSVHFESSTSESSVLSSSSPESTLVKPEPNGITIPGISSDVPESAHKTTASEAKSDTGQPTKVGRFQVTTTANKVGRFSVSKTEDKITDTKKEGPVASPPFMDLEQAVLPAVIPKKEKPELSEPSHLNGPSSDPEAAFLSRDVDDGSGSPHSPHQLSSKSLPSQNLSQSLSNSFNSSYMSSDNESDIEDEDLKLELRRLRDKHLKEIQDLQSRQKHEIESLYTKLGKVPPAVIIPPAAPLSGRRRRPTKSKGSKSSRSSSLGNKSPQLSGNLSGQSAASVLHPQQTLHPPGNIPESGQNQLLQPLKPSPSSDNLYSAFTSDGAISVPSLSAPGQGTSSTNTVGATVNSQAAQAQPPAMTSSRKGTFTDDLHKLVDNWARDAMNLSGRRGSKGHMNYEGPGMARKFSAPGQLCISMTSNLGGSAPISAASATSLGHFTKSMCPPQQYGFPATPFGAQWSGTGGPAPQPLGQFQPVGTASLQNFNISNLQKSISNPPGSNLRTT
T5 sequence (Q9P286 whole entry): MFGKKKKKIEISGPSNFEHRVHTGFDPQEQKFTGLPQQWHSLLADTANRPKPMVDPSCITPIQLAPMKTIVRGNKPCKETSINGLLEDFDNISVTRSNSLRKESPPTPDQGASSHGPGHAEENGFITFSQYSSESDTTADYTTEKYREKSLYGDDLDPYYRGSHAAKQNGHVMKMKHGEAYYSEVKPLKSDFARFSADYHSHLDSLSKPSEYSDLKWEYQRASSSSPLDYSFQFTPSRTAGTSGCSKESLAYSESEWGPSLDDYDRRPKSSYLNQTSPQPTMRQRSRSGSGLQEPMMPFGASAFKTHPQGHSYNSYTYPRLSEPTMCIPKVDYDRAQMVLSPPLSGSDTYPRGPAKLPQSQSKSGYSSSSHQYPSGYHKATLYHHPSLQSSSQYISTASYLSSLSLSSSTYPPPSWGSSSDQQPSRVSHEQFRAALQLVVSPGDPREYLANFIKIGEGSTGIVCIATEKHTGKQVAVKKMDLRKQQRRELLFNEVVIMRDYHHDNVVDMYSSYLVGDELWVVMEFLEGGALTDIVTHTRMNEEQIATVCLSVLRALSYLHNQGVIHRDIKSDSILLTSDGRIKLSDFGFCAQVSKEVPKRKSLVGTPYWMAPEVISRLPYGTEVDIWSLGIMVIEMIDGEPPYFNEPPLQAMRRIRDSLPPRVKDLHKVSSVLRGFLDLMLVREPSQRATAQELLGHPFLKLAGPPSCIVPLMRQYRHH

What does the source list for `COc1cc(OC)c(Cl)c(-c2ccc3c(NC(=O)c4ccc(N5CCNC(C)(C)C5)cc4)n[nH]c3n2)c1Cl` [3D185]?
inhibition at 0.01 µM ([1]; 10 nM): 0%; inhibition at 0.1 µM ([1]; 100 nM): 4%; inhibition at 1 µM ([1]; 1000 nM): 11%; inhibition at 0.01 µM ([2]; 10 nM): 1%; inhibition at 0.1 µM ([2]; 100 nM): 9%; inhibition at 1 µM ([2]; 1000 nM): 30%; inhibition at 0.01 µM ([3]; 10 nM): -1%; inhibition at 0.1 µM ([3]; 100 nM): 3%; inhibition at 1 µM ([3]; 1000 nM): 41%; inhibition at 0.01 µM ([4]; 10 nM): 4%; inhibition at 0.1 µM ([4]; 100 nM): 14%; inhibition at 1 µM ([4]; 1000 nM): 22%; inhibition at 0.01 µM ([5]; 10 nM): -11%; inhibition at 0.1 µM ([5]; 100 nM): -2%; inhibition at 1 µM ([5]; 1000 nM): 5%; inhibition at 0.01 µM ([6]; 10 nM): 2%; inhibition at 0.1 µM ([6]; 100 nM): 2%; inhibition at 1 µM ([6]; 1000 nM): -7%; inhibition at 0.01 µM ([7]; 10 nM): -4%; inhibition at 0.1 µM ([7]; 100 nM): -5%; inhibition at 1 µM ([7]; 1000 nM): 5%; inhibition at 0.01 µM ([8]; 10 nM): -17%; inhibition at 0.1 µM ([8]; 100 nM): 8%; inhibition at 1 µM ([8]; 1000 nM): 30%; inhibition at 0.01 µM ([9]; 10 nM): 3%; inhibition at 0.1 µM ([9]; 100 nM): 2%; inhibition at 1 µM ([9]; 1000 nM): 16%; inhibition at 0.01 µM ([10]; 10 nM): -18%; inhibition at 0.1 µM ([10]; 100 nM): 16%; inhibition at 1 µM ([10]; 1000 nM): 88%; inhibition at 0.01 µM ([11]; 10 nM): 0%; inhibition at 0.1 µM ([11]; 100 nM): 1%; inhibition at 1 µM ([11]; 1000 nM): -6%; inhibition at 0.01 µM ([12]; 10 nM): 5%; inhibition at 0.1 µM ([12]; 100 nM): -5%; inhibition at 1 µM ([12]; 1000 nM): -5%; inhibition at 0.01 µM ([13]; 10 nM): 8%; inhibition at 0.1 µM ([13]; 100 nM): 23%; inhibition at 1 µM ([13]; 1000 nM): 63%; inhibition at 0.01 µM ([14]; 10 nM): 31%; inhibition at 0.1 µM ([14]; 100 nM): 87%; inhibition at 1 µM ([14]; 1000 nM): 97%; inhibition at 0.01 µM ([15]; 10 nM): 4%; inhibition at 0.1 µM ([15]; 100 nM): 11%; inhibition at 1 µM ([15]; 1000 nM): 17%
